In patent publication US20150266908A1, “FLAME RETARDANT COMPRISING AROMATIC PHOSPHATE ESTER-BASED COMPOUND, AND METHOD FOR PREPARING SAME” (priority 2012, published 2015):

Tested on: CHO cells
Assay: Test on toxicity of DPBAP: chromosomal abnormality in CHO cells
Assay type: cell-based
Description: A test on the toxicity of the DPBAP in accordance with the method of the present invention was performed (by the Korea Research Institute of Chemical Technology). After treating the DPBAP to CHO cells, chromosomal abnormality was measured. Consequently, the increasing of the chromosomal abnormality was not observed in all of DPBAP treatment groups regardless of application of metabolic activation system. […] However, in the CHO cells, it was known that the polyploid and endoreduplication can be generally observed due to the over-proliferation, or other causes (Scott et al., 1990).

CCCCNP(=O)(Oc1ccccc1)Oc1ccccc1 [DPBAP, Diphenylbutylaminophosphate]
toxicity (overall conclusion) (CHO cells chromosomal abnormality test): no toxicity were observed | increasing of the chromosomal abnormality (CHO cells, all DPBAP treatment groups, regardless of application of metabolic activation system): not observed | cells dead (CHO cells, highest concentration of the test material): about 50% | polyploid and endoreduplication (CHO cells, highest-concentration groups, treated during 24 hours): minority of polyploid and endoreduplication was observed
